Reference: ChEMBL document CHEMBL1201861, “Genomics of Drug Sensitity in Cancer screening data, Wellcome Trust Sanger Institute”

Assays:
Experiment in all cases: cells
Format in all cases: functional, cell-based, Homo sapiens
COLO-800 = conditions: Homo sapiens, COLO-800;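 further: growth inhibition of COLO-800 cells, read out with a cell viability assay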
Description: SANGER: Inhibition of human COLO-800 cell growth in a cell viability assay.

COLO-829 = conditions: Homo sapiens, COLO-829
Description: SANGER: Inhibition of human COLO-829 cell growth in a cell viability assay.

CTB-1 = conditions: Homo sapiens, CTB-1
Description: SANGER: Inhibition of human CTB-1 cell growth in a cell viability assay.

DOHH-2 = conditions: Homo sapiens, DOHH-2;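 further: growth inhibition of human DOHH-2 cells, read out with a cell viability assay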
Description: SANGER: Inhibition of human DOHH-2 cell growth in a cell viability assay.

EC-GI-10 = conditions: Homo sapiens, EC-GI-10
Description: SANGER: Inhibition of human EC-GI-10 cell growth in a cell viability assay.

ES1 = conditions: Homo sapiens, ES1;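 further: growth inhibition of ES1 cells, read out with a cell viability assay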
Description: SANGER: Inhibition of human ES1 cell growth in a cell viability assay.

ES4 = conditions: Homo sapiens, ES4;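 further: growth inhibition of human ES4 cells, read out by a cell viability assay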
Description: SANGER: Inhibition of human ES4 cell growth in a cell viability assay.

ETK-1 = conditions: Homo sapiens, ETK-1;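 further: growth inhibition of human ETK-1 cells, read out with a cell viability assay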
Description: SANGER: Inhibition of human ETK-1 cell growth in a cell viability assay.

GAK = conditions: Homo sapiens, GAK;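 further: cell growth inhibition read out by a cell viability assay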
Description: SANGER: Inhibition of human GAK cell growth in a cell viability assay.

HCC2157 = conditions: Homo sapiens, HCC2157;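 further: growth inhibition of the cancer cell line, read out as cell viability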
Description: SANGER: Inhibition of human HCC2157 cell growth in a cell viability assay.

HL-60 = conditions: Homo sapiens, HL-60;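 further: growth inhibition of human HL-60 cells, read out with a cell viability assay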
Description: SANGER: Inhibition of human HL-60 cell growth in a cell viability assay.

HT = conditions: Homo sapiens, HT
Description: SANGER: Inhibition of human HT cell growth in a cell viability assay.

JVM-2 = conditions: Homo sapiens, JVM-2;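 further: growth inhibition of JVM-2 cells determined by a cell viability assay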
Description: SANGER: Inhibition of human JVM-2 cell growth in a cell viability assay.

KLE = conditions: Homo sapiens, KLE;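 further: growth inhibition of human KLE cells, read out with a cell viability assay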
Description: SANGER: Inhibition of human KLE cell growth in a cell viability assay.

L-363 = conditions: Homo sapiens, L-363
Description: SANGER: Inhibition of human L-363 cell growth in a cell viability assay.

LB1047-RCC = conditions: Homo sapiens, LB1047-RCC;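 further: inhibition of cell growth, determined with a cell viability assay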
Description: SANGER: Inhibition of human LB1047-RCC cell growth in a cell viability assay.

LB996-RCC = conditions: Homo sapiens, LB996-RCC
Description: SANGER: Inhibition of human LB996-RCC cell growth in a cell viability assay.

LS-123 = conditions: Homo sapiens, LS-123
Description: SANGER: Inhibition of human LS-123 cell growth in a cell viability assay.

MMAC-SF = conditions: Homo sapiens, MMAC-SF;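 further: growth inhibition of human MMAC-SF cells, read out with a cell viability assay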
Description: SANGER: Inhibition of human MMAC-SF cell growth in a cell viability assay.

MN-60 = conditions: Homo sapiens, MN-60;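 further: growth inhibition of the MN-60 cell line, determined with a cell viability assay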
Description: SANGER: Inhibition of human MN-60 cell growth in a cell viability assay.

MZ1-PC = conditions: Homo sapiens, MZ1-PC;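 further: cell viability assay measuring growth inhibition of human MZ1-PC cells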
Description: SANGER: Inhibition of human MZ1-PC cell growth in a cell viability assay.

NB12 = conditions: Homo sapiens, NB12;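 further: growth inhibition of human NB12 cells, read out by a cell viability assay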
Description: SANGER: Inhibition of human NB12 cell growth in a cell viability assay.

NB5 = conditions: Homo sapiens, NB5;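 further: growth inhibition of NB5 cells, read out as cell viability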
Description: SANGER: Inhibition of human NB5 cell growth in a cell viability assay.

NB6 = conditions: Homo sapiens, NB6;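 further: growth inhibition of NB6 cells, read out by a cell viability assay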
Description: SANGER: Inhibition of human NB6 cell growth in a cell viability assay.

NCI-H1092 = conditions: Homo sapiens, NCI-H1092;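 further: cell growth inhibition measured with a cell viability assay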
Description: SANGER: Inhibition of human NCI-H1092 cell growth in a cell viability assay.

NCI-H1155 = conditions: Homo sapiens, NCI-H1155;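 further: cell growth inhibition measured by a viability assay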
Description: SANGER: Inhibition of human NCI-H1155 cell growth in a cell viability assay.

NCI-H1299 = conditions: Homo sapiens, NCI-H1299;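 further: growth inhibition of human NCI-H1299 cells, read out by a cell viability assay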
Description: SANGER: Inhibition of human NCI-H1299 cell growth in a cell viability assay.

NCI-H1581 = conditions: Homo sapiens, NCI-H1581;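 further: cell growth inhibition read out by a viability assay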
Description: SANGER: Inhibition of human NCI-H1581 cell growth in a cell viability assay.

NCI-H209 = conditions: Homo sapiens, NCI-H209;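 further: growth inhibition of human NCI-H209 cells, measured by a cell viability assay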
Description: SANGER: Inhibition of human NCI-H209 cell growth in a cell viability assay.

NCI-H69 = conditions: Homo sapiens, NCI-H69;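 further: growth inhibition of the cell line, read out with a cell viability assay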
Description: SANGER: Inhibition of human NCI-H69 cell growth in a cell viability assay.

NH-12 = conditions: Homo sapiens, NH-12;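 further: growth inhibition of NH-12 cells, read out with a cell viability assay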
Description: SANGER: Inhibition of human NH-12 cell growth in a cell viability assay.

NMC-G1 = conditions: Homo sapiens, NMC-G1;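 further: growth inhibition of the NMC-G1 cell line, measured with a cell viability read-out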
Description: SANGER: Inhibition of human NMC-G1 cell growth in a cell viability assay.

RPMI-8866 = conditions: Homo sapiens, RPMI-8866
Description: SANGER: Inhibition of human RPMI-8866 cell growth in a cell viability assay.

RXF 393 = conditions: Homo sapiens, RXF 393;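 further: growth inhibition of human RXF 393 cells, read out with a cell viability assay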
Description: SANGER: Inhibition of human RXF393 cell growth in a cell viability assay.

SBC-1 = conditions: Homo sapiens, SBC-1;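 further: cell viability assay measuring growth inhibition of the SBC-1 cell line, IC50 being the concentration that halves growth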
Description: SANGER: Inhibition of human SBC-1 cell growth in a cell viability assay.

SF-268 = conditions: Homo sapiens, SF-268;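 further: growth inhibition of SF-268 cells determined with a cell viability assay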
Description: SANGER: Inhibition of human SF268 cell growth in a cell viability assay.

SK-MEL-1 = conditions: Homo sapiens, SK-MEL-1;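 further: growth inhibition of human SK-MEL-1 cells, read out by a cell viability assay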
Description: SANGER: Inhibition of human SK-MEL-1 cell growth in a cell viability assay.

SW684 = conditions: Homo sapiens, SW684;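 further: growth inhibition of human SW684 cells, measured by a cell viability assay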
Description: SANGER: Inhibition of human SW684 cell growth in a cell viability assay.

BV-173 = conditions: Homo sapiens, BV-173
Description: SANGER: Inhibition of human BV-173 cell growth in a cell viability assay.

C8166 = conditions: Homo sapiens, C8166;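 further: growth inhibition of human C8166 cells measured by a cell viability assay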
Description: SANGER: Inhibition of human C8166 cell growth in a cell viability assay.

TE-10 = conditions: Homo sapiens, TE-10;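 further: growth inhibition of TE-10 cells, measured by a cell viability assay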
Description: SANGER: Inhibition of human TE-10 cell growth in a cell viability assay.

TE-5 = conditions: Homo sapiens, TE-5;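 further: inhibition of cell growth, read out by a cell viability assay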
Description: SANGER: Inhibition of human TE-5 cell growth in a cell viability assay.

TE-9 = conditions: Homo sapiens, TE-9;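 further: cell growth inhibition, measured with a cell viability readout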
Description: SANGER: Inhibition of human TE-9 cell growth in a cell viability assay.

TK-10 = conditions: Homo sapiens, TK-10;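 further: growth inhibition of TK-10 cells, read out in a cell viability assay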
Description: SANGER: Inhibition of human TK10 cell growth in a cell viability assay.

UACC-257 = conditions: Homo sapiens, UACC-257
Description: SANGER: Inhibition of human UACC-257 cell growth in a cell viability assay.

VA-ES-BJ = conditions: Homo sapiens, VA-ES-BJ;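 further: growth inhibition of the VA-ES-BJ cell line, read out by a cell viability assay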
Description: SANGER: Inhibition of human VA-ES-BJ cell growth in a cell viability assay.

no-11 = conditions: Homo sapiens;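 further: growth inhibition of human NO-11 cells, read out with a cell viability assay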
Description: SANGER: Inhibition of human no-11 cell growth in a cell viability assay.

COLO-320-HSR = conditions: Homo sapiens, COLO-320-HSR;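 further: growth inhibition of COLO-320-HSR cells, determined with a cell viability assay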
Description: SANGER: Inhibition of human COLO-320-HSR cell growth in a cell viability assay.

C=C(c1ccc(C(=O)O)cc1)c1cc2c(cc1C)C(C)(C)CCC2(C)C [BEXAROTENE]
IC50 (COLO-800): > 8000 nM | IC50 (COLO-829): > 8000 nM | IC50 (CTB-1): > 8000 nM | IC50 (DOHH-2): > 8000 nM | IC50 (EC-GI-10): > 8000 nM | IC50 (ES1): > 8000 nM | IC50 (ES4): 3770 nM | IC50 (ETK-1): > 8000 nM | IC50 (GAK): > 8000 nM | IC50 (HCC2157): > 8000 nM | IC50 (HL-60): > 8000 nM | IC50 (HT): > 8000 nM | IC50 (JVM-2): > 8000 nM | IC50 (KLE): > 8000 nM | IC50 (L-363): > 8000 nM | IC50 (LB1047-RCC): > 8000 nM | IC50 (LB996-RCC): > 8000 nM | IC50 (LS-123): > 8000 nM | IC50 (MMAC-SF): > 8000 nM | IC50 (MN-60): > 8000 nM | IC50 (MZ1-PC): > 8000 nM | IC50 (NB12): > 8000 nM | IC50 (NB5): > 8000 nM | IC50 (NB6): > 8000 nM | IC50 (NCI-H1092): > 8000 nM | IC50 (NCI-H1155): > 8000 nM | IC50 (NCI-H1299): > 8000 nM | IC50 (NCI-H1581): > 8000 nM | IC50 (NCI-H209): > 8000 nM | IC50 (NCI-H69): > 8000 nM | IC50 (NH-12): > 8000 nM | IC50 (NMC-G1): > 8000 nM | IC50 (RPMI-8866): > 8000 nM | IC50 (RXF 393): > 8000 nM | IC50 (SBC-1): > 8000 nM | IC50 (SF-268): > 8000 nM | IC50 (SK-MEL-1): > 8000 nM | IC50 (SW684): > 8000 nM | IC50 (BV-173): > 8000 nM | IC50 (C8166): > 8000 nM | IC50 (TE-10): > 8000 nM | IC50 (TE-5): > 8000 nM | IC50 (TE-9): > 8000 nM | IC50 (TK-10): > 8000 nM | IC50 (UACC-257): > 8000 nM | IC50 (VA-ES-BJ): > 8000 nM | IC50 (no-11): > 8000 nM | IC50 (COLO-320-HSR): > 8000 nM

CCC/C=C/C=C/C(=O)O[C@H]1/C(=C/C(=O)OC)C[C@H]2C[C@H]([C@@H](C)O)OC(=O)C[C@H](O)C[C@@H]3C[C@H](OC(C)=O)C(C)(C)[C@](O)(C[C@@H]4C/C(=C/C(=O)OC)C[C@H](/C=C/C(C)(C)[C@]1(O)O2)O4)O3 [BRYOSTATIN 1]
IC50 (COLO-800): > 8 nM | IC50 (COLO-829): > 8 nM | IC50 (CTB-1): > 8 nM | IC50 (DOHH-2): > 8 nM | IC50 (EC-GI-10): > 8 nM | IC50 (ES1): > 8 nM | IC50 (ES4): > 8 nM | IC50 (ETK-1): > 8 nM | IC50 (GAK): > 8 nM | IC50 (HCC2157): > 8 nM | IC50 (HL-60): > 8 nM | IC50 (HT): > 8 nM | IC50 (JVM-2): > 8 nM | IC50 (KLE): > 8 nM | IC50 (L-363): > 8 nM | IC50 (LB1047-RCC): > 8 nM | IC50 (LB996-RCC): > 8 nM | IC50 (LS-123): > 8 nM | IC50 (MMAC-SF): > 8 nM | IC50 (MN-60): > 8 nM | IC50 (MZ1-PC): > 8 nM | IC50 (NB12): > 8 nM | IC50 (NB5): > 8 nM | IC50 (NB6): > 8 nM | IC50 (NCI-H1092): > 8 nM | IC50 (NCI-H1155): > 8 nM | IC50 (NCI-H1299): > 8 nM | IC50 (NCI-H1581): > 8 nM | IC50 (NCI-H209): > 8 nM | IC50 (NCI-H69): > 8 nM | IC50 (NH-12): > 8 nM | IC50 (NMC-G1): > 8 nM | IC50 (RPMI-8866): > 8 nM | IC50 (RXF 393): > 8 nM | IC50 (SBC-1): > 8 nM | IC50 (SF-268): > 8 nM | IC50 (SK-MEL-1): > 8 nM | IC50 (SW684): > 8 nM | IC50 (BV-173): > 8 nM | IC50 (C8166): > 8 nM | IC50 (TE-10): > 8 nM | IC50 (TE-5): > 8 nM | IC50 (TE-9): > 8 nM | IC50 (TK-10): > 8 nM | IC50 (UACC-257): > 8 nM | IC50 (VA-ES-BJ): > 8 nM | IC50 (no-11): > 8 nM | IC50 (COLO-320-HSR): > 8 nM

COc1cccc2c1C(=O)c1c(O)c3c(c(O)c1C2=O)C[C@@](O)(C(=O)CO)C[C@@H]3O[C@H]1C[C@H](N)[C@H](O)[C@H](C)O1 [DOXORUBICIN]
IC50 (COLO-800): 172 nM | IC50 (COLO-829): > 1020 nM | IC50 (CTB-1): 64.2 nM | IC50 (DOHH-2): 20 nM | IC50 (EC-GI-10): > 1020 nM | IC50 (ES1): 13.7 nM | IC50 (ES4): 6.11 nM | IC50 (ETK-1): 83 nM | IC50 (GAK): 257 nM | IC50 (HCC2157): 64 nM | IC50 (HL-60): 62.6 nM | IC50 (HT): 405 nM | IC50 (JVM-2): 242 nM | IC50 (KLE): 175 nM | IC50 (L-363): 324 nM | IC50 (LB1047-RCC): 36 nM | IC50 (LB996-RCC): 78.5 nM | IC50 (LS-123): 18.5 nM | IC50 (MMAC-SF): 106 nM | IC50 (MN-60): 605 nM | IC50 (MZ1-PC): 23.8 nM | IC50 (NB12): 277 nM | IC50 (NB5): 360 nM | IC50 (NB6): > 1020 nM | IC50 (NCI-H1092): 738 nM | IC50 (NCI-H1155): 580 nM | IC50 (NCI-H1299): 37.6 nM | IC50 (NCI-H1581): 981 nM | IC50 (NCI-H209): 48.7 nM | IC50 (NCI-H69): 569 nM | IC50 (NH-12): 76 nM | IC50 (NMC-G1): 139 nM | IC50 (RPMI-8866): 192 nM | IC50 (RXF 393): 335 nM | IC50 (SBC-1): 156 nM | IC50 (SF-268): 92.4 nM | IC50 (SK-MEL-1): > 1020 nM | IC50 (SW684): > 1020 nM | IC50 (BV-173): 251 nM | IC50 (C8166): 33.3 nM | IC50 (TE-10): 113 nM | IC50 (TE-5): 37.5 nM | IC50 (TE-9): 257 nM | IC50 (TK-10): 115 nM | IC50 (UACC-257): 362 nM | IC50 (VA-ES-BJ): 33.4 nM | IC50 (no-11): 322 nM | IC50 (COLO-320-HSR): 513 nM
